Where two headings read alike, the source gives them in different places.
Experiments:
[1] = tested on: Leptosphaeria nodorum—LEPTNO; experiment: Glume Blotch of Wheat, in vivo whole plant, 24 Hour Protectant; details: Leptosphaeria, 24 h, inoculated after 24 hours, read-out: LEPTNO in vivo 1 Day Protectant
[2] = tested on: Ustilago maydis (USTIMA); experiment: microbe, parasite or virus in culture; format: cell-based
[3] = tested on: Rhizoctonia solani (RHIZSO); experiment: microbe, parasite or virus in culture; format: cell-based
[4] = tested on: Puccinia recondita—PUCCRT; experiment: Brown Rust of Wheat, in vivo whole plant, 24 Hour Protectant; details: Puccinia; wheat (cultivar Yuma), sprayed at 100 ppm, inoculated after 24 hours; control of fungal infection vs untreated plants; read-out: PUCCRT in vivo 1 Day Protectant
[5] = wheat (cultivar Yuma), sprayed at 100 ppm, control of fungal infection vs untreated plants
[6] = wheat plants sprayed at 100 ppm, control vs untreated plants

For `COc1ccnc(C(=O)N[C@H]2COC(=O)[C@H](Cc3ccccc3)[C@@H](OC(=O)NC(C)C)[C@H](C)OC2=O)c1O` [Compound 399], the pest or weed control at 100 ppm [1, 5] was 75 to 100%.
Work on `COc1ccnc(C(=O)N[C@H]2COC(=O)[C@H](Oc3ccccc3)[C@@H](OC(=O)C(C)C)[C@H](C)OC2=O)c1O` [Compound 403] yielded a pest or weed control at 100 ppm [1, 5] of 75 to 100%.
Compound `COc1ccnc(C(=O)N[C@H]2COC(=O)[C@H](Cc3ccccc3)[C@@H](OC(=O)C3CC3)[C@H](C)OC2=O)c1O` [Compound 387] has a pest or weed control at 100 ppm [1, 5] of 75 to 100%.
For `COc1ccnc(C(=O)NC2CSCC(c3ccccc3)C2)c1O` (stereo not drawn) [Compound 324], the pest or weed control at 100 ppm [1, 5] was 75 to 100%, the “USTIMA in vitro Growth Inhibition” value [2] was “+ (key: +: at least 80% growth inhibition; −: less than 80% growth inhibition)” and the “RHIZSO in vitro Growth Inhibition” value [3] was “+ (key: +: at least 80% growth inhibition; −: less than 80% growth inhibition)”.
`COc1ccnc(C(=O)N[C@H]2CC[C@H](Oc3ccc(C(F)(F)F)cc3)CC2)c1O` [Compound 270] was tested, and the pest or weed control at 100 ppm [1, 5] was 75 to 100%, the “USTIMA in vitro Growth Inhibition” value [2] was “+ (key: +: at least 80% growth inhibition; −: less than 80% growth inhibition)” and the “RHIZSO in vitro Growth Inhibition” value [3] was “+ (key: +: at least 80% growth inhibition; −: less than 80% growth inhibition)”.
`COc1ccnc(C(=O)NC(COC(=O)CC(C)OC(=O)CCc2ccccc2)C(=O)OC(C)C)c1O` (stereo not drawn) [Compound 353] showed a pest or weed control at 100 ppm [4] of 75 to 100%.
With `Cc1ccc(C(=O)N[C@H]2COC(=O)[C@H](Cc3ccccc3)[C@@H](OC(=O)C(C)C)[C@H](C)OC2=O)c(O)n1` [Compound 525] the pest or weed control at 100 ppm [1, 6] was 75 to 100%.
For `COc1ccnc(C(=O)N[C@H](C(=O)O[C@@H](C)[C@H](OC(=O)C(C)C)[C@@H](Cc2ccccc2)C(=O)OCc2ccccc2)[C@@H](C)OC(C)=O)c1O` [Compound 361], the pest or weed control at 100 ppm [4] was 75 to 100%.
`COc1ccnc(C(=O)NC(COC(=O)C(C)Cc2ccccc2)C(=O)OC(C)C)c1O` (stereo not drawn) [Compound 351] gave a pest or weed control at 100 ppm [4] of 75 to 100%.
In the case of `CC(C)C(=O)O[C@H]1[C@H](C)OC(=O)[C@@H](NC(=O)c2nccnc2O)COC(=O)[C@@H]1Cc1ccccc1` [Compound 534], the pest or weed control at 100 ppm [1, 6] is reported as 75 to 100%.
With `COc1ccnc(C(=O)N[C@H]2COC(=O)[C@H](Cc3ccccc3)[C@@H](OC(=O)C3CCCC3)[C@H](C)OC2=O)c1O` [Compound 391] the pest or weed control at 100 ppm [1, 5] was 75 to 100%.
`COc1ccnc(C(=O)N[C@H]2COC(=O)[C@H](Cc3ccccc3)[C@@H](OC(=O)C3CCCCC3)[C@H](C)OC2=O)c1O` [Compound 392] gave a pest or weed control at 100 ppm [1, 5] of 75 to 100%.
`COc1ccnc(C(=O)NC2CC(C)(C)CC(C)(C(=O)CCCc3ccccc3)C2)c1O` (stereo not drawn) [Compound 276] was tested, and the pest or weed control at 100 ppm [1, 5] was 75 to 100%, the “USTIMA in vitro Growth Inhibition” value [2] was “− (key: +: at least 80% growth inhibition; −: less than 80% growth inhibition)” and the “RHIZSO in vitro Growth Inhibition” value [3] was “− (key: +: at least 80% growth inhibition; −: less than 80% growth inhibition)”.
`COC(=O)C(COC(=O)C(COC(=O)C(C)C)Cc1ccccc1)NC(=O)c1nccc(OC)c1O` (stereo not drawn) [Compound 349] showed a pest or weed control at 100 ppm [4] of 75 to 100%.
`COc1ccnc(C(=O)N[C@H]2COC(=O)[C@H](Cc3ccccc3)[C@@H](OC(=O)OC(C)C)[C@H](C)OC2=O)c1O` [Compound 401] showed a pest or weed control at 100 ppm [1, 5] of 75 to 100%.
In the case of `COc1ccnc(C(=O)NC2CC(C)(C)CC3(C2)CC3(F)F)c1O` (stereo not drawn) [Compound 255], the pest or weed control at 100 ppm [1, 5] is reported as 75 to 100%, the “USTIMA in vitro Growth Inhibition” value [2] is reported as “− (key: +: at least 80% growth inhibition; −: less than 80% growth inhibition)” and the “RHIZSO in vitro Growth Inhibition” value [3] is reported as “− (key: +: at least 80% growth inhibition; −: less than 80% growth inhibition)”.
Compound `COc1ccnc(C(=O)Nc2ccc(Sc3cccc(C(F)(F)F)c3)cc2)c1O` [Compound 445] has a pest or weed control at 100 ppm [1, 5] of 75 to 100%.
With `COc1ccnc(C(=O)N[C@H]2CC[C@H]3C4CCC(CC4)[C@H]3C2=O)c1O` [Compound 292] the pest or weed control at 100 ppm [1, 5] was 75 to 100%, the “USTIMA in vitro Growth Inhibition” value [2] was “− (key: +: at least 80% growth inhibition; −: less than 80% growth inhibition)” and the “RHIZSO in vitro Growth Inhibition” value [3] was “− (key: +: at least 80% growth inhibition; −: less than 80% growth inhibition)”.
`COc1ccnc(C(=O)N[C@H]2COC(=O)[C@H](Cc3ccccc3)[C@@H](OC(=O)c3ccccc3)[C@H](C)OC2=O)c1O` [Compound 394] showed a pest or weed control at 100 ppm [1, 5] of 75 to 100%.
`Cc1nc(O)c(C(=O)N[C@H]2COC(=O)[C@H](Cc3ccccc3)[C@@H](OC(=O)C(C)C)[C@H](C)OC2=O)nc1C` [Compound 536] gave a pest or weed control at 100 ppm [1, 6] of 75 to 100%.
`COc1ccnc(C(=O)N[C@H]2COC(=O)[C@H](Cc3ccccc3)[C@@H](OC(=O)NC(C)(C)C)[C@H](C)OC2=O)c1O` [Compound 400] gave a pest or weed control at 100 ppm [1, 5] of 75 to 100%.
Work on `COc1ccnc(C(=O)N[C@@H](COCc2ccccc2)C(=O)O[C@@H](C)[C@H](OC(=O)C(C)C)[C@@H](Cc2ccccc2)C(=O)OCc2ccccc2)c1O` [Compound 342] yielded a pest or weed control at 100 ppm [4] of 75 to 100%.
With `COc1ccnc(C(=O)Nc2ccc(Oc3ccc(C)cc3)cc2)c1O` [Compound 417] the pest or weed control at 100 ppm [1, 5] was 75 to 100%.
